Measured values taken from patent US7704995B2 (Exelixis, Inc., priority 2003, dated 2010).

Target: T1, Chk1 (Homo sapiens, UniProt O14757)
T1 construct: purchased Upstate Biotechnology
T1 sequence (O14757 1-476): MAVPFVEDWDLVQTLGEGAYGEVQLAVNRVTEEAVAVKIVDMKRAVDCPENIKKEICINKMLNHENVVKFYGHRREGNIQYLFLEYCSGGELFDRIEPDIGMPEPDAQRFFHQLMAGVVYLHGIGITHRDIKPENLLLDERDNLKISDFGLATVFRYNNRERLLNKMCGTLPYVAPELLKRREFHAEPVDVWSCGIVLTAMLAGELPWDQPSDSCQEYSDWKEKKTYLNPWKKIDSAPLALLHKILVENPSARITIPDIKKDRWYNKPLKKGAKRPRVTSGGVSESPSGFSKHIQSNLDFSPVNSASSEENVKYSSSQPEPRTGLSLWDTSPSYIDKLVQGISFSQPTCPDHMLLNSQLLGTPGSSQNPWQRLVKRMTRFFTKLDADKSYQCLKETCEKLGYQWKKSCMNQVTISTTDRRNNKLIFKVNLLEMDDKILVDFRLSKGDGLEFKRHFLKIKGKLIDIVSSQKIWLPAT
Assay: Chk1 kinase assay: incorporation of γ-33P ATP into immobilized myelin basic protein
Assay type: biochemical
Settings: read-out: Chk1 IC50
Experimental: Chk1 and Chk2 assays were performed by measuring incorporation of γ-^33P ATP into immobilized myelin basic protein (MBP). High binding white 384 well plates (Greiner) were coated with MBP (Sigma #M-1891) by incubation of 60 ul/well of 20 μg/ml MBP in Tris-buffered saline (TBS; 50 mM Tris pH 8.0, 138 mM NaCl, 2.7 mM KCl) for 24 hours at 4° C. Plates were washed 3× with 100 μl TBS. Kinase reactions were carried out in a total volume of 34 μl in kinase buffer (5 mM Hepes pH 7.6, 15 mM NaCl, 0.01% bovine gamma globulin (Sigma #I-5506), 10 mM MgCl2, 1 mM DTT, 0.02% TritonX-100). Compound dilutions were performed in DMSO and added to assay wells to a final DMSO concentration of 1%. Each data point was measured in duplicate, and at least two duplicate assays were performed for each individual compound determination. Chk1 and Chk2 enzymes (Upstate Biotechnology) were added to final concentrations of 10 nM (Chk1) or 20 nM (Chk2). A mixture of unlabeled ATP and γ-^33P ATP was added to start the reaction (2×10^6 cpm of γ-^33P ATP per well (3000 Ci/mmole) and either 10 μM or 30 μM unlabeled ATP (for Chk1 and Chk2 assays respectively). The reaction was carried out for 1 hour at room temperature with shaking. Plates were washed 7× with TBS, followed by the addition of 50 μl/well scintillation fluid (Wallac). Plates were read using a Wallac Trilux counter. This is only one format of such assays, various other formats are possible, as known to those skilled in the art.
The above assay procedure can be used to determine the IC50 for inhibition and/or the inhibition constant Ki. The IC50 is defined as the concentration of compound required to reduce the enzyme activity by 50% under the conditions of the assay. […] The Ki for a compound may be determined from the IC50 based on three assumptions. First, only one compound molecule binds to the enzyme and there is no cooperativity. […] Third, the enzymatic rate of the enzyme-inhibitor complex is zero. The rate (i.e., compound concentration) data are fitted to the equation: […]

SMILES | IC50 [nM]
CNC(=O)c1nc(-c2cccc(C(=O)NCc3cccc(Cl)c3)c2)cnc1N [Example 125, 3-amino-6-[3-({[(3-chlorophenyl)methyl]amino}carbonyl)phenyl]-N-methylpyrazine-2-carboxamide] | 50 to 1000
CNC(=O)c1nc(-c2cccc(C(=O)NCC3CCCCC3)c2)cnc1N [Example 126, 3-amino-6-(3-{[(cyclohexylmethyl)amino]carbonyl}phenyl)-N-methylpyrazine-2-carboxamide] | 50 to 1000
CNC(=O)c1nc(-c2cccc(C(=O)NCC(C)c3ccccc3)c2)cnc1N (stereo not shown) [Example 127, 3-amino-N-methyl-6-(3-{[(2-phenylpropyl)amino]carbonyl}phenyl)pyrazine-2-carboxamide] | 50 to 1000
CNC(=O)c1nc(-c2cccc(C(=O)NCc3ccccc3Cl)c2)cnc1N [Example 128, 3-amino-6-[3-({[(2-chlorophenyl)methyl]amino}carbonyl)phenyl]-N-methylpyrazine-2-carboxamide] | 50 to 1000
CNC(=O)c1nc(-c2cccc(C(=O)NCCc3ccccc3Cl)c2)cnc1N [Example 129, 3-amino-6-[3-({[2-(2-chlorophenyl)ethyl]amino}carbonyl)phenyl]-N-methylpyrazine-2-carboxamide] | 50 to 1000
CNC(=O)c1nc(-c2cccc(C(=O)NCCc3ccccc3OC)c2)cnc1N [Example 130, 3-amino-N-methyl-6-{3-[({2-[2-(methyloxy)phenyl]ethyl}amino)carbonyl]phenyl}pyrazine-2-carboxamide] | 50 to 1000
CNC(=O)c1nc(-c2cccc(C(=O)NCCc3ccc(F)cc3)c2)cnc1N [Example 131, 3-amino-6-[3-({[2-(4-fluorophenyl)ethyl]amino}carbonyl)phenyl]-N-methylpyrazine-2-carboxamide] | 50 to 1000
CNC(=O)c1nc(-c2cccc(C(=O)NCCc3cccs3)c2)cnc1N [Example 132, 3-amino-N-methyl-6-[3-({[2-(2-thienyl)ethyl]amino}carbonyl)phenyl]pyrazine-2-carboxamide] | 50 to 1000
CNC(=O)c1nc(-c2cccc(C(=O)NC3CCCCC3)c2)cnc1N [Example 133, 3-amino-6-{3-[(cyclohexylamino)carbonyl]phenyl}-N-methylpyrazine-2-carboxamide] | 1000 to 10000
CNC(=O)c1nc(-c2cccc(C(=O)NCC3CCN(C(=O)OC(C)(C)C)CC3)c2)cnc1N [Example 134, 1,1-dimethylethyl 4-({[(3-{5-amino-6-[(methylamino)carbonyl]pyrazin-2-yl}phenyl)carbonyl]amino}methyl)piperidine-1-carboxylate] | 50 to 1000
CNC(=O)c1nc(-c2cccc(C(=O)NCC3CCNCC3)c2)cnc1N [Example 135, 3-amino-N-methyl-6-(3-{[(piperidin-4-ylmethyl)amino]carbonyl}phenyl)pyrazine-2-carboxamide] | 50 to 1000
CNC(=O)c1nc(-c2cccc(-c3noc(-c4ccccc4)n3)c2)cnc1N [Example 136, 3-amino-N-methyl-6-[3-(5-phenyl-1,2,4-oxadiazol-3-yl)phenyl]pyrazine-2-carboxamide] | 1000 to 10000
CNC(=O)c1nc(-c2cccc(-c3noc(Cc4ccccc4)n3)c2)cnc1N [Example 137, 3-amino-N-methyl-6-{3-[5-(phenylmethyl)-1,2,4-oxadiazol-3-yl]phenyl}pyrazine-2-carboxamide] | 1000 to 10000
CNC(=O)c1nc(-c2cccc(-c3noc(CCc4ccccc4)n3)c2)cnc1N [Example 138, 3-amino-N-methyl-6-{3-[5-(2-phenylethyl)-1,2,4-oxadiazol-3-yl]phenyl}pyrazine-2-carboxamide] | 1000 to 10000
CNC(=O)c1nc(-c2cccc(C(=O)NC(C)(C)C)c2)cnc1N [Example 139, 3-amino-6-(3-{[(1,1-dimethylethyl)amino]carbonyl}phenyl)-N-methylpyrazine-2-carboxamide] | 1000 to 10000
CNC(=O)c1nc(-c2cccc(C(=O)N[C@@H]3c4ccccc4C[C@@H]3O)c2)cnc1N [Example 140, 3-amino-6-[3-({[(1R,2S)-2-hydroxy-2,3-dihydro-1H-inden-1-yl]amino}carbonyl)phenyl]-N-methylpyrazine-2-carboxamide] | 50 to 1000

SMILES | IC50 [nM]
CNC(=O)c1nc(-c2cccc(C(=O)N[C@H]3c4ccccc4C[C@H]3O)c2)cnc1N [Example 141, 3-amino-6-[3-({[(1S,2R)-2-hydroxy-2,3-dihydro-1H-inden-1-yl]amino}carbonyl)phenyl]-N-methylpyrazine-2-carboxamide] | 1000 to 10000
CNC(=O)c1nc(-c2cccc(C(=O)Nc3ccccc3)c2)cnc1N [Example 142, 3-amino-N-methyl-6-{3-[(phenylamino)carbonyl]phenyl}pyrazine-2-carboxamide] | 1000 to 10000
CNC(=O)c1nc(-c2cccc(C(=O)N3Cc4ccccc4C3)c2)cnc1N [Example 143, 3-amino-6-[3-(1,3-dihydro-2H-isoindol-2-ylcarbonyl)phenyl]-N-methylpyrazine-2-carboxamide] | 1000 to 10000
CNC(=O)c1nc(-c2cccc(C(=O)N[C@H](C)c3ccccc3)c2)cnc1N [Example 144, 3-amino-N-methyl-6-[3-({[(1R)-1-phenylethyl]amino}carbonyl)phenyl]pyrazine-2-carboxamide] | 1000 to 10000
CNC(=O)c1nc(-c2cccc(C(=O)N[C@@H](C)c3ccccc3)c2)cnc1N [Example 145, 3-amino-N-methyl-6-[3-({[(1S)-1-phenylethyl]amino}carbonyl)phenyl]pyrazine-2-carboxamide] | 50 to 1000
CC[C@@H](NC(=O)c1cccc(-c2cnc(N)c(C(=O)NC)n2)c1)c1ccccc1 [Example 146, 3-amino-N-methyl-6-[3-({[(1R)-1-phenylpropyl]amino}carbonyl)phenyl]pyrazine-2-carboxamide] | 1000 to 10000
CC[C@H](NC(=O)c1cccc(-c2cnc(N)c(C(=O)NC)n2)c1)c1ccccc1 [Example 147, 3-amino-N-methyl-6-[3-({[(1S)-1-phenylpropyl]amino}carbonyl)phenyl]pyrazine-2-carboxamide] | 1000 to 10000
CNC(=O)c1nc(-c2cccc(C(=O)N[C@@H]3C[C@H]3c3ccccc3)c2)cnc1N [Example 148, 3-amino-N-methyl-6-[3-({[(1R,2S)-2-phenylcyclopropyl]amino}carbonyl)phenyl]pyrazine-2-carboxamide] | 50 to 1000
CNC(=O)c1nc(-c2ccc(C(=O)OCc3ccccc3)cc2)cnc1N [Example 149, phenylmethyl 4-{5-amino-6-[(methylamino)carbonyl]pyrazin-2-yl}benzoate] | ≥ 10000
CNC(=O)c1nc(-c2ccc(C(=O)NCc3ccccc3)cc2)cnc1N [Example 150, 3-amino-N-methyl-6-(4-{[(phenylmethyl)amino]carbonyl}phenyl)pyrazine-2-carboxamide] | 1000 to 10000
CNC(=O)c1nc(-c2ccc(C(=O)NCCc3ccccc3)cc2)cnc1N [Example 151, 3-amino-N-methyl-6-(4-{[(2-phenylethyl)amino]carbonyl}phenyl)pyrazine-2-carboxamide] | 50 to 1000
CNC(=O)c1nc(-c2ccc(C(=O)NCc3ccc(Cl)cc3Cl)cc2)cnc1N [Example 152, 3-amino-6-[4-({[(2,4-dichlorophenyl)methyl]amino}carbonyl)phenyl]-N-methylpyrazine-2-carboxamide] | 50 to 1000
CNC(=O)c1nc(-c2ccc(C(=O)NCc3ccc(C)cc3)cc2)cnc1N [Example 153, 3-amino-N-methyl-6-[4-({[(4-methylphenyl)methyl]amino}carbonyl)phenyl]pyrazine-2-carboxamide] | 50 to 1000
CNC(=O)c1nc(-c2ccc(C(=O)N[C@H]3CCc4ccccc43)cc2)cnc1N [Example 154, 3-amino-6-(4-{[(1S)-2,3-dihydro-1H-inden-1-ylamino]carbonyl}phenyl)-N-methylpyrazine-2-carboxamide] | 50 to 1000
CNC(=O)c1nc(-c2cccc(NC(=O)Cc3ccc(Cl)cc3)c2)cnc1N [Example 155, 3-amino-6-(3-{[(4-chlorophenyl)acetyl]amino}phenyl)-N-methylpyrazine-2-carboxamide] | 50 to 1000
